We go through 18 compounds from patent US8293769B2, “CSF-1R inhibitors, compositions, and methods of use” (Novartis AG, priority 2008, dated 2012).

In experiment [1] the target is T1, cytoplasmic domain of the human CSF-1R (Homo sapiens, UniProt P07333).
T1 construct: Recombinant protein corresponding to the cytoplasmic domain of the human CSF-1R; purchased Invitrogen Corporation, Carlsbad, Calif; PV3249
T1 sequence (P07333 539-972 limits assumed): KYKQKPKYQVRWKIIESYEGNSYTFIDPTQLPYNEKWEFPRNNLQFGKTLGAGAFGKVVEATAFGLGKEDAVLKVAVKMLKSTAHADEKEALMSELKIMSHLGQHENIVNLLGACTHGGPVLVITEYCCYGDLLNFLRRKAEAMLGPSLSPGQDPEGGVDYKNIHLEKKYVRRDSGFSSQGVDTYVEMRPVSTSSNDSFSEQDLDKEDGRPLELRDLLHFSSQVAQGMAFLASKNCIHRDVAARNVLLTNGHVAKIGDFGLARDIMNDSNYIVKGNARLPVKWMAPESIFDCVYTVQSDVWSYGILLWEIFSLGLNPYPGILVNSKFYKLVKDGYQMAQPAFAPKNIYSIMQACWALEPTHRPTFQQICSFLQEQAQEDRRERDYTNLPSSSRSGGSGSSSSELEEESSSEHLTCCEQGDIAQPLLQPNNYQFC
The experiment can be described thus: In vitro kinase assay for CSF-1R (AlphaScreen). Particulars: tested at about 1 μM; read-out: CSF1RK 1 percent inhibition. Type of experiment: biochemical. An outline of the steps: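 Recombinant CSF-1R cytoplasmic domain (4 nM) phosphorylated biotinylated peptide (0.05 μM) at 1.0 μM ATP in HEPES with Mg2+/Mn2+, 2 h at room temperature, compounds from 25 μM in 3-fold steps. AlphaScreen anti-phosphotyrosine PT66 detection; IC50 by non-linear regression.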
Background: Alpha assays give light when donor and acceptor beads are brought close together.

In another experiment the target is T2, cKIT (Homo sapiens, UniProt P10721).
T2 construct: The kinase domain of cKIT was assayed in 50 mM Hepes; purchased Upstate 14-559
The experiment is described as follows: cKIT kinase in vitro biochemical assay (alphascreen). Particulars: tested at about 1 μM; read-out: CKIT percent inhibition.

A further experiment concerns the target T3, PDGFRb (Homo sapiens, UniProt P09619).
T3 construct: The kinase domain of PDGFRβ was assayed in 50 mM Hepes; purchased Invitrogen P3082
The experiment can be described thus: PDGFRb kinase in vitro biochemical assay (alphascreen). Particulars: tested at about 1 μM; read-out: PDGF RK BETA percent inhibition.

For experiment [2], the system named is MNFS60 (murine AML cells). The experiment can be described thus: Cell viability assay in MCSF dependent MNFS60 cells (Cell Titer Glo). Type of experiment: cell-based. Particulars: Mus musculus; tested at about 1 μM; MCSF 10 ng/mL, 72 hrs; read-out: CPEC50 MNFS60MCSF percent inhibition. On the procedure:
Cell viability was assessed by Cell Titer Glo, Promega. MNFS60 (murine AML cells) were seeded in TC treated 96-well plates at a density of 5,000 cells per well in RPMI-1640, 10% FBS, and 1% Penicillin Streptomycin prior to addition of compound. Test compounds were serially diluted (3 fold) in DMSO to 500× the final concentration. For each concentration of test compound, 2 μl (500×) aliquots of compound or 100% DMSO (control) were diluted in 500 μl of culture medium that contained 2× final concentration of growth factor MCSF for 2× concentration and then diluted 1× on the cells. Final concentration of MCSF is 10 ng/mL. Cells were incubated for 72 hrs at 37° C., 5% CO2. After the incubation 100 μl Cell Titer Glo is added to each well to determine viable cells. The assay was performed according to the manufacturer's instruction (Promega Corporation, Madison, Wis. USA). Each experimental condition was performed in triplicate. Raw data was imported in Abase and EC50s calculated with XL-fit data analysis software: Relative light units of wells that contained cells without MCSF in the media and as a consequence didn't grow were defined as 100% inhibited.

T2 sequence (P10721 589-937 limits assumed): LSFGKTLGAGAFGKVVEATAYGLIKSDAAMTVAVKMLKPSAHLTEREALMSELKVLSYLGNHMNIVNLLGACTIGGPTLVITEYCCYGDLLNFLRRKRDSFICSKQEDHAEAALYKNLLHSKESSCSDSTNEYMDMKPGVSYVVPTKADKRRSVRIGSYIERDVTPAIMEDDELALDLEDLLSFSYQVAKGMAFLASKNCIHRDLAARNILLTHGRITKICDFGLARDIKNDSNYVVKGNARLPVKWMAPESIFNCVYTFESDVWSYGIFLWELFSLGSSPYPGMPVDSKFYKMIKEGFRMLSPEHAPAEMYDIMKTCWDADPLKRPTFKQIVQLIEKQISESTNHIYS
T3 sequence (P09619 600-962 limits assumed): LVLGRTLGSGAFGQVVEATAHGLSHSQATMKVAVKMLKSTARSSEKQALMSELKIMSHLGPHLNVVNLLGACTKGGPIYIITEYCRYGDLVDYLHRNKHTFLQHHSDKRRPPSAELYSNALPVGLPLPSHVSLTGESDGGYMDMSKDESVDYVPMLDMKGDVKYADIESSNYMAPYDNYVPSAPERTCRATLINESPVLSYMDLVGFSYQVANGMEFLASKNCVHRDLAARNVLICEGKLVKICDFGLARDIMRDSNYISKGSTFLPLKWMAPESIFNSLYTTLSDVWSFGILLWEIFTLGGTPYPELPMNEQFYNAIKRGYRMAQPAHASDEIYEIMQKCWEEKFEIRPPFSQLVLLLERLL

Usually inhibition stands for the percentage by which the read-out fell short of the control. In the case of `Nc1cc(Oc2ccc3nc(N[C@@H]4CCCC[C@H]4O)sc3c2)ncn1` [Compound 9, (1R,2R)-2-(6-(6-aminopyrimidin-4-yloxy)benzo[d]thiazol-2-ylamino) cyclohexanol], the inhibition at 1 µM came out at 97% in experiment [1], 13% on cKIT, 2% on PDGFRb and 15% in experiment [2].

On to `CNC(=O)c1cc(Oc2ccc3nc(NCC4CCCCC4)sc3c2)nc(OC)n1` [Compound 10, 6-(2-(Cyclohexylmethylamino)benzo[d]thiazol-6-yloxy)-2-methoxy-n-methylpyrimidine-4-carboxamide], for which the inhibition at 1 µM in experiment [1] is 96%; at cKIT it was 16%; at PDGFRb it was 5%; in experiment [2], 27%.

In the case of `CNc1cc(Oc2ccc3nc(NCC4CCCCC4)sc3c2)ncn1` [Compound 13, N-(cyclohexylmethyl)-6-(6-(methylamino)pyrimidin-4-yloxy)benzo[d]thiazol-2-amine], the inhibition at 1 µM in experiment [1] was found to be 98%; on cKIT, 42%; on PDGFRb it was 30%; in experiment [2] it was 18%.

In the case of `COc1cc2ncnc(Oc3ccc4nc(NCC5CCCCC5)sc4c3)c2cc1OC` [Compound 17, N-(cyclohexylmethyl)-6-(6,7-dimethoxyquinazolin-4-yloxy)benzo[d] thiazol-2-amine], the inhibition at 1 µM in experiment [1] is 100%; on cKIT, 99%; on PDGFRb it was 98%; in experiment [2], 100%.

Take `O[C@@H]1CCCC[C@H]1Nc1nc2ccc(Oc3ncnc4ccccc34)cc2s1` [Compound 18, (1R,2R)-2-(6-(quinazolin-4-yloxy)benzo[d]thiazol-2-ylamino)cyclohexanol]: the inhibition at 1 µM in experiment [1] amounted to 100%; at cKIT, 22%; on PDGFRb, 11%; in experiment [2], 38%.

As to `COc1cc2ncnc(Oc3ccc4nc(N[C@@H]5CCCC[C@H]5O)sc4c3)c2cc1OC` [Compound 19, (1R,2R)-2-(6-(6,7-dimethoxyquinazolin-4-yloxy)benzo [d]thiazol-2-ylamino) cyclohexanol], the inhibition at 1 µM in experiment [1] stood at 100%; at cKIT, 34%; at PDGFRb, 30%; in experiment [2], 100%.

With `Cn1cc(-c2cc(Oc3ccc4nc(NCC5CCCCC5)sc4c3)ncn2)cn1` [Compound 20, N-(cyclohexylmethyl)-6-(6-(1-methyl-1H-pyrazol-4-yl)pyrimidin-4-yloxy)benzo[d]thiazol-2-amine], the inhibition at 1 µM is 100% in experiment [1], 99% on cKIT, 82% at PDGFRb and 96% in experiment [2].

Regarding `Cn1cc(-c2nccc(Oc3ccc4nc(NCC5CCCCC5)sc4c3)n2)cn1` [Compound 21, N-(cyclohexylmethyl)-6-(2-(1-methyl-1H-pyrazol-4-yl)pyrimidin-4-yloxy) benzo[d]thiazol-2-amine], the inhibition at 1 µM in experiment [1] was determined as 100%; at cKIT it was 100%; at PDGFRb, 92%; in experiment [2], 100%.

As to `Cn1cc(-c2cc(Oc3ccc4nc(N[C@@H]5CCCC[C@H]5O)sc4c3)ncn2)cn1` [Compound 22, (1R,2R)-2-(6-(6-(1-methyl-1H-pyrazol-4-yl)pyrimidin-4-yloxy)benzo[d]thiazol-2-ylamino) cyclohexanol], the inhibition at 1 µM worked out at 100% in experiment [1], 29% at cKIT, 11% on PDGFRb and 100% in experiment [2].

`Cn1cc(-c2nccc(Oc3ccc4nc(N[C@@H]5CCCC[C@H]5O)sc4c3)n2)cn1` [Compound 23, (1R,2R)-2-(6-(2-(1-methyl-1H-pyrazol-4-yl)pyrimidin-4-yloxy)benzo[d]thiazol-2-ylamino) cyclohexanol]: the inhibition at 1 µM in experiment [1] came to 100%; on cKIT, 19%; at PDGFRb it was 7%; in experiment [2], 100%.

For the compound `c1cc(-n2cncn2)cc(Oc2ccc3nc(NCC4CCCCC4)sc3c2)n1` [Compound 24, 6-(4-(1H-1,2,4-triazol-1-yl)pyridin-2-yloxy)-N-(cyclohexylmethyl)benzo[d]thiazol-2-amine], the inhibition at 1 µM was found to be 44% in experiment [1], 7% on cKIT, 9% on PDGFRb and 0% in experiment [2].

On to `Cn1nccc1-c1cc(Oc2ccc3nc(N[C@@H]4CCCC[C@H]4O)sc3c2)ncn1` [Compound 25, (1R,2R)-2-(6-(6-(1-methyl-1H-pyrazol-5-yl)pyrimidin-4-yloxy)benzo[d]thiazol-2-ylamino) cyclohexanol], for which the inhibition at 1 µM stood at 69% in experiment [1], 22% on cKIT, 0% at PDGFRb and 14% in experiment [2].

As to `Cn1nccc1-c1nccc(Oc2ccc3nc(N[C@@H]4CCCC[C@H]4O)sc3c2)n1` [Compound 26, (1R,2R)-2-(6-(2-(1-methyl-1H-pyrazol-5-yl)pyrimidin-4-yloxy)benzo[d]thiazol-2-ylamino) cyclohexanol], the inhibition at 1 µM in experiment [1] was 100%; on cKIT it was 24%; at PDGFRb, 20%; in experiment [2], 19%.

As for `Nc1ccc(-c2nccc(Oc3ccc4nc(N[C@@H]5CCCC[C@H]5O)sc4c3)n2)cn1` [Compound 29, (1R,2R)-2-(6-(2-(6-aminopyridin-3-yl)pyrimidin-4-yloxy)benzo[d]thiazol-2-ylamino)cyclohexanol], the inhibition at 1 µM worked out at 100% in experiment [1], 13% at cKIT, 11% on PDGFRb and 76% in experiment [2].

Turning to `C[C@H](Nc1nc2ccc(Oc3ccnc(-c4cnn(C)c4)n3)cc2s1)C1CCCCC1` [Compound 30, (S)-N-(1-cyclohexylethyl)-6-(2-(1-methyl-1H-pyrazol-4-yl)pyrimidin-4-yloxy)benzo[d] thiazol-2-amine], the inhibition at 1 µM in experiment [1] came out at 100%; on cKIT, 24%; on PDGFRb, 21%; in experiment [2] it was 100%.

Turning to `C[C@H](Nc1nc2ccc(Oc3ccnc(-c4ccc(N)nc4)n3)cc2s1)C1CCCCC1` [Compound 33, (S)-6-(2-(6-aminopyridin-3-yl)pyrimidin-4-yloxy)-N-(1-cyclohexylethyl) benzo[d]thiazol-2-amine], the inhibition at 1 µM stood at 100% in experiment [1], 32% on cKIT, 22% at PDGFRb and 78% in experiment [2].

For `C[C@H](Nc1nc2ccc(Oc3ccnc(-c4ccnn4C)n3)cc2s1)C1CCCCC1` [Compound 34, (S)-N-(1-cyclohexylethyl)-6-(2-(1-methyl-1H-pyrazol-5-yl)pyrimidin-4-yloxy)benzo[d]thiazol-2-amine], the inhibition at 1 µM in experiment [1] was found to be 100%; on cKIT it was 21%; on PDGFRb, 6%; in experiment [2], 19%.

As for `c1nc(Oc2ccc3nc(NCC4CCCCC4)sc3c2)c2ccsc2n1` [Compound 37, N-(cyclohexylmethyl)-6-(thieno[2,3-d]pyrimidin-4-yloxy) benzo[d]thiazol-2-amine], the inhibition at 1 µM in experiment [1] was found to be 100%; at cKIT it was 75%; at PDGFRb, 39%; in experiment [2], 0%.
